Data on one compound can be found in patent publication EP0166353B1, “Benzofused lactams useful as antihypertensive agents and as cholecystokinin antagonists” (Merck & Co., Inc., priority 1984, dated 1986).

The target in this experiment is CCK receptor. Briefly: 125I-CCK-33 receptor binding assay. Particulars: tissue not stated (methods given for rat pancreas and guinea pig brain cortex membranes); read-out: IC₅₀, inhibition of specific ¹²⁵I-CCK-33 binding. The protocol:
CCK-33 was radiolabeled with ¹²⁵I-Bolton Hunter reagent (2000 Ci/mmole) as described by Sankara et al. (J. Biol. Chem. 254: 9349-9351, 1979). Receptor binding was performed according to Innis and Snyder (Proc. Natl. Acad. Sci. 77: 6917-6921, 1980) with the minor modification of adding the additional protease inhibitors, phenylmethane sulfonyl fluoride and o-phenanthroline. The latter two compounds have no effect on the ¹²⁵I-CCK receptor binding assay.
Male Sprague-Dawley rats (200-350g) were sacrificed by decapitation. The whole pancreas was dissected free of fat tissue and was homogenized in 20 volumes of ice-cold 50 mM, Tris HCl (pH 7.7 at 25°C) with a Brinkmann Polytron PT 10. The homogenates were centrifuged at 48,000 g for 10 min. […] The supernatant was aspirated and discarded, pellets were counted with a Beckman gamma 5000. […]
Male Hartley guinea pigs (300-500g) were sacrificed by decapitation and the brains were removed and placed in ice-cold 50 mM, Tris HCl plus 7.58 g/L Trizma-7.4 (pH 7.4 at 25°C) Cerebral cortex was dissected and used as a receptor source. […] The supernatant was aspirated and discarded, pellets were counted with a Beckman gamma 5000.

For `CCOC(=O)C(CCc1ccccc1)NC1CCc2ccccc2N(CC(=O)COC(C)=O)C1=O` (stereo not shown) [1-(3-Acetoxy-2-oxopropyl)-3-(1-carboethoxy-3-phenyl-1-propyl)amino homodihydrocarbostyril], the IC50 came out at 25 µM.
